Results published in patent US6524630B2, “Use of cocoa procyanidins combined with acelylsalicyclic acid as an anti-platelet therapy” (Mars, Incorporated, priority 2000, dated 2003).
Marks after values point to notes of the source that are not given here.

Assays:
Assay type in all cases: in vivo, human
[1] = system: prostacyclin (PGI2) metabolite 6-keto prostaglandin F1-alpha; experiment: Enzyme immunoassay of prostacyclin metabolite in blood after treatment
Protocol: Blood was drawn from the subjects prior to consumption of any food. After the initial blood was drawn, the subjects were divided into four groups. One group consumed 81 mg of aspirin (acetylsalicylic acid) (Bayer pediatric aspirin). A second group consumed a high cocoa polyphenol beverage consisting of 18.75 g of procyanidin enriched cocoa powder derived from Sulawesi beans (containing 51.1 mg/g of total procyanidins, 11.2% fat, 0.092% caffeine, 1.618% theobromine) and 12.5 g of sucrose mixed with 300 ml of distilled water. A third group consumed the high cocoa procyanidin beverage and 81 mg of baby aspirin. […] The blood samples were also analyzed for changes in leukotriene, prostacyclin and thromboxane levels resulting from the four treatment regimes. […] The prostacyclin (PGI2) metabolite 6-keto prostaglandin F1-alpha was measured with Cayman enzyme immunoassay #515211, the thromboxane (TXA2) metabolite TXB2 was measured with Cayman enzyme immunoassay 519031, and leukotrienes C4, D4 and E4 were quantified using the immunoassay EA-39 from Oxford Biomedical Research. P values were calculated using the paired sample T-test. […]

[2] = system: thromboxane (TXA2) metabolite TXB2; experiment: Enzyme immunoassay of thromboxane metabolite in blood after treatment
Protocol: Blood was drawn from the subjects prior to consumption of any food. After the initial blood was drawn, the subjects were divided into four groups. One group consumed 81 mg of aspirin (acetylsalicylic acid) (Bayer pediatric aspirin). A second group consumed a high cocoa polyphenol beverage consisting of 18.75 g of procyanidin enriched cocoa powder derived from Sulawesi beans (containing 51.1 mg/g of total procyanidins, 11.2% fat, 0.092% caffeine, 1.618% theobromine) and 12.5 g of sucrose mixed with 300 ml of distilled water. A third group consumed the high cocoa procyanidin beverage and 81 mg of baby aspirin. The final group consumed 81 mg of baby aspirin and a procyanidin deficient cocoa beverage consisting of 18.75 g of cocoa powder (containing 0.45 mg/g total procyanidins, 9.87% fat, 2.063% theobromine, 0.234% caffeine) and 12.5 g of sucrose mixed with 300 ml of distilled water. During the test period the subjects were permitted to consume water, caffeine-free diet soda, bagels, low fat cream cheese, and bananas. Blood was drawn from each of the subjects two hours and six hours post consumption of the treatment. Venous blood was aspirated into evacuated tubes containing 0.5 ml of 3.2% buffered sodium citrate solution.
The blood samples were also analyzed for changes in leukotriene, prostacyclin and thromboxane levels resulting from the four treatment regimes. Immunoassay procedures were conducted as described by Westcott et al, “Analysis Of 6-Keto PGF1 Alpha, 5-HETE, And LTC4 In Rat Lung: Comparison Of GM/MS, RIA and EIA”, Prostaglandins 32:857-873, 1986; Yakota et al, “Enzyme Immunoassay Of Prostanoids In Blood And Urine”, Adv. Prostgl.Thrombox. Leukot. Res. 15:33-34, 1985; and Schramm et al, “Differential Effects of Small and Large Molecular Weight Phytochemicals on Endothelial Cell Eicosanoid Secretion” J Agric Food Chem 46:1900-1905, 1998. The prostacyclin (PGI2) metabolite 6-keto prostaglandin F1-alpha was measured with Cayman enzyme immunoassay #515211, the thromboxane (TXA2) metabolite TXB2 was measured with Cayman enzyme immunoassay 519031, and leukotrienes C4, D4 and E4 were quantified using the immunoassay EA-39 from Oxford Biomedical Research. P values were calculated using the paired sample T-test. Values of p<0.05 were considered to be statistically significant.

[3] = system: leukotrienes C4, D4 and E4; experiment: Immunoassay of leukotrienes in blood after treatment
Protocol: Blood was drawn from the subjects prior to consumption of any food. After the initial blood was drawn, the subjects were divided into four groups. One group consumed 81 mg of aspirin (acetylsalicylic acid) (Bayer pediatric aspirin). A second group consumed a high cocoa polyphenol beverage consisting of 18.75 g of procyanidin enriched cocoa powder derived from Sulawesi beans (containing 51.1 mg/g of total procyanidins, 11.2% fat, 0.092% caffeine, 1.618% theobromine) and 12.5 g of sucrose mixed with 300 ml of distilled water. A third group consumed the high cocoa procyanidin beverage and 81 mg of baby aspirin. The final group consumed 81 mg of baby aspirin and a procyanidin deficient cocoa beverage consisting of 18.75 g of cocoa powder (containing 0.45 mg/g total procyanidins, 9.87% fat, 2.063% theobromine, 0.234% caffeine) and 12.5 g of sucrose mixed with 300 ml of distilled water. During the test period the subjects were permitted to consume water, caffeine-free diet soda, bagels, low fat cream cheese, and bananas. Blood was drawn from each of the subjects two hours and six hours post consumption of the treatment. Venous blood was aspirated into evacuated tubes containing 0.5 ml of 3.2% buffered sodium citrate solution. The blood samples were also analyzed for changes in leukotriene, prostacyclin and thromboxane levels resulting from the four treatment regimes. Immunoassay procedures were conducted as described by Westcott et al, “Analysis Of 6-Keto PGF1 Alpha, 5-HETE, And LTC4 In Rat Lung: Comparison Of GM/MS, RIA and EIA”, Prostaglandins 32:857-873, 1986; Yakota et al, “Enzyme Immunoassay Of Prostanoids In Blood And Urine”, Adv. Prostgl.Thrombox. Leukot. Res. 15:33-34, 1985; and Schramm et al, “Differential Effects of Small and Large Molecular Weight Phytochemicals on Endothelial Cell Eicosanoid Secretion” J Agric Food Chem 46:1900-1905, 1998. The prostacyclin (PGI2) metabolite 6-keto prostaglandin F1-alpha was measured with Cayman enzyme immunoassay #515211, the thromboxane (TXA2) metabolite TXB2 was measured with Cayman enzyme immunoassay 519031, and leukotrienes C4, D4 and E4 were quantified using the immunoassay EA-39 from Oxford Biomedical Research. P values were calculated using the paired sample T-test. Values of p<0.05 were considered to be statistically significant.

[4] = system: activated conformation of the GPIIb/IIIa platelet receptor; experiment: Ex vivo flow cytometry (PAC1) of activated GPIIb/IIIa on platelets after treatment; settings: at 6 hours compared to baseline
Protocol: The subjects used in the previous study also participated in the surface protein expression study. The methodology with respect to treatment regimes and collection of blood was identical to that which was outlined in the previous example. Within 10 minutes of draw, whole blood was incubated in polystyrene tubes for 5 minutes at room temperature with 10 μm HEPES buffer (pH 7.4, unstimulated control), 20 or 100 μm ADP or 20 μtm epinephrine (BioData, Horsham, Pa.) in the presence or absence of the peptide […] (Sigma, St. Louis, Mo.). After 5 minutes, samples were suspended in 1 ml HEPES buffer and 100 μm of sample were transferred to tubes containing saturating concentrations (20 μm ) each of the following fluorescent-labeled monoclonal antibodies: PAC1-fluorescein isothiocyanate (FITC), anti-CD62P-phycoerythrin (PE) and anti-CD42a-PerCP. PAC1 recognizes the activated conformation of the fibrinogen-binding receptor GPIIb-IIIa and anti-CD62P recognizes P-selectin, present on the surface of activated platelets. […] All samples were analyzed within 48 hours on a FACScan flow cytometer using […] software. […] Twenty thousand events were collected in list mode with all light-scatter and fluorescence parameters in logarithmic code. […] The platelet-dependent hemostasis data were also analyzed for statistical differences among treatment groups for each time point, baseline, 2 and 6 hour.

P-selectin (CD62P) = experiment: Ex vivo flow cytometry of platelet surface expression of P-selectin after treatment
Protocol: The subjects used in the previous study also participated in the surface protein expression study. The methodology with respect to treatment regimes and collection of blood was identical to that which was outlined in the previous example. Within 10 minutes of draw, whole blood was incubated in polystyrene tubes for 5 minutes at room temperature with 10 μm HEPES buffer (pH 7.4, unstimulated control), 20 or 100 μm ADP or 20 μtm epinephrine (BioData, Horsham, Pa.) in the presence or absence of the peptide […] (Sigma, St. Louis, Mo.). After 5 minutes, samples were suspended in 1 ml HEPES buffer and 100 μm of sample were transferred to tubes containing saturating concentrations (20 μm ) each of the following fluorescent-labeled monoclonal antibodies: PAC1-fluorescein isothiocyanate (FITC), anti-CD62P-phycoerythrin (PE) and anti-CD42a-PerCP. PAC1 recognizes the activated conformation of the fibrinogen-binding receptor GPIIb-IIIa and anti-CD62P recognizes P-selectin, present on the surface of activated platelets. Anti-CD42a recognizes GP1b-1X, which is on the surface of both activated and resting platelets. Mouse IgG, FITC and mouse IgG, PE were used as isotype controls. The […]-peptide was used to block binding of the PAC1 antibody to platelets and thus set the negative control marker on the flow cytometer. Antibodies and isotype controls were purchased from Becton Dickinson Immunocytometry Systems, Inc., San Jose, Calif. Whole blood samples in the presence and absence of the agonists ADP and epinephrine were incubated with monoclonal antibodies or isotype control for 20 minutes in the dark at room temperature. Samples were then fixed in filtered 1% paraformaldehyde (pH 7.2) and stored in the dark at 2-8° C. All samples were analyzed within 48 hours on a FACScan flow cytometer using […] software. The flow cytometer performance was verified using 1, 2 and 10 μm calibration beads (Becton Dickinson Immunocytometry Systems, Inc., San Jose, Calif. and Flow Cytometry Systems, Research Triangle Park, N.C.). Twenty thousand events were collected in list mode with all light-scatter and fluorescence parameters in logarithmic code. Platelets were gated on the basis of […] CD42a expression. Activated platelets were defined as the percentage of CD42a positive events coexpressing the activated conformation of GPIIb-IIa or P-selectin. Platelet microparticles were defined as the percentage of CD42a positive events less than 2 μm in size. To perform the statistical analysis of the results, Friedman's repeated measures ANOVA on ranks (RM ANOVA on ranks) was used to compare the baseline, 2 and 6 hour results in each treatment group. Tukey's all pairwise comparison was used for post hoc multiple comparisons. […] The platelet-dependent hemostasis data were also analyzed for statistical differences among treatment groups for each time point, baseline, 2 and 6 hour.

CC(=O)Oc1ccccc1C(=O)O [Aspirin, acetylsalicylic acid]
Prostacyclin ([1]; 2 hrs post consumption): 103 | Prostacyclin ([1]; 6 hrs post consumption): 104 | TXB2/PG12 ratio ([2]; 2 hrs post consumption): 89 | Thromboxane ([2]; 2 hrs post consumption): 91 | TXB2/PG12 ratio ([2]; 6 hrs post consumption): 86 | Thromboxane ([2]; 6 hrs post consumption): 89 | LT/PG12 ratio ([3]; 2 hrs post consumption): 99 | Leukotrienes ([3]; 2 hrs post consumption): 101 | LT/PG12 ratio ([3]; 6 hrs post consumption): 100 | Leukotrienes ([3]; 6 hrs post consumption): 100 | epinephrine-induced GPIIb/IIIa expression [4]: suppressed | % CD62 + Platelets, Median (P-selectin (CD62P); 20 μM ADP, 0 Hour (before consumption)): 64.5% | % CD62 + Platelets, Median (P-selectin (CD62P); 20 μM ADP, 2 Hour): 60.3% | % CD62 + Platelets, Median (P-selectin (CD62P); 20 μM ADP, 6 Hour): 60.8% | % CD62 + Platelets, Median (P-selectin (CD62P); 20 μM Epinephrine, 0 Hour (before consumption)): 7.9% | % CD62 + Platelets, Median (P-selectin (CD62P); 20 μM Epinephrine, 2 Hour): 6.2% | % CD62 + Platelets, Median (P-selectin (CD62P); 20 μM Epinephrine, 6 Hour): 4.7* % | % CD62 + Platelets, Median (P-selectin (CD62P); Unstimulated, 0 Hour (before consumption)): 1.4% | % CD62 + Platelets, Median (P-selectin (CD62P); Unstimulated, 2 Hour): 1.5% | % CD62 + Platelets, Median (P-selectin (CD62P); Unstimulated, 6 Hour): 1.3% | epinephrine-induced P-selectin expression (P-selectin (CD62P); at 6 hours compared to baseline, in words): suppressed
